The subject of assay [1] is Bacillus anthracis. Put plainly: microbe, parasite or virus in culture. The following applies: BA104.
The test system of assay [2] is Bacillus anthracis. Put plainly: microbe, parasite or virus in culture. The conditions noted are these: BA103.

Converted amounts (≈) assume the structure as drawn.

Take `O=C(O)c1cn(C2CC2)c2cc(N3CCNCC3)c(F)cc2c1=O` [CIPROFLOXACIN]: the MIC against Bacillus anthracis [1] and in the assay on Bacillus anthracis [2] was 0.064 µg/mL (≈ 0.193 µM) throughout.
